In patent US20240277705A1, “DOSAGE REGIMENS FOR ECUBECTEDIN” (PHARMA MAR S.A., priority 2021, published 2024):

Tested on: RXF 1781L (hypernephroma, poorly differentiated)
Assay: Propidium iodide monolayer cell proliferation assay, RXF 1781L
Assay type: cell-based, human
Conditions: four days of treatment
Experimental: Working stock solution of PM14 was prepared in DMSO at a concentration of 1.042 mM and small aliquots were stored at −20° C. On each day of an experiment, a frozen aliquot of the working stock solution was thawed and stored at room temperature prior to and during treatment.
Subsequent dilutions were done with complete RPMI 1640 cell culture medium. DMSO stock solutions were first diluted 1:22 (corresponding to 4.5% v/v DMSO). Starting with this solution, serial dilutions in half-log steps with cell culture medium were done using an intermediate dilution plate. Finally, 10 μl taken from the intermediate dilution plate were transferred to 140 μl/well of the cell culture plate. […]
Cell proliferation assay: A modified propidium iodide (PI) based monolayer assay was used to assess the anti-cancer activity of the compounds (Dengler WA, Schulte J, Berger DP, Mertelsmann R, Fiebig HH, Anti-Cancer Drugs 1995, 6: 522-532). Briefly, cells were harvested from exponential phase cultures, counted and plated in 96 well flat-bottom microtiter plates at a cell density of 4,000 to 30,000 cells/well dependent on the cell line's growth rate. […] After an incubation period of 1-2 hours at room temperature, fluorescence (FU) was measured using the Enspire Multimode Plate Reader (excitation A=530 nm, emission A=620 nm) to quantify the amount of attached viable cells. […]

COc1c(C)cc2c(c1O)[C@@H]1[C@@H]3[C@@H]4SC[C@]5(N[C@H](CO)Cc6c5[nH]c5ccccc65)C(=O)OC[C@@H](c5c6c(c(C)c(OC(C)=O)c54)OCO6)N3[C@@H](O)[C@H](C2)N1C [PM14, ECUBECTEDIN]
IC50 (Homo sapiens, 96 h, read-out: IC50, μM (geometric mean)): 0.004 µM
IC70, μM (geometric mean): 0.005 µM
